Holding throughout (type): in vivo, rat
One assay deals with caspase-3. The assay can be described thus: Immunohistochemistry protein expression in I/R myocardial tissue: caspase-3. Conditions: 1 mL/kg, 5 days; ischemia 30 min, reperfusion 2 h. The procedure: (§1) 52 SD rats having a body weight of 220±20 g were randomly divided into model control group, salviannic acid injection group (in 1 mL/kg), and group of bornyl β-(3,4-dihydroxylphenyl)-α-hydroxylpropionate ester at a small, middle and large dose (ip 5, 15, 35 mg/kg). The rats of the normal group and the model control group were ip administered with equal-volume of physiologic saline. The rats of all groups were administered for consecutive 5 days. When the rats were administered for the last time, they were simultaneously anesthetized with 1.5% pentobarbital sodium (ip 45 mg/kg), then a catheter was inserted into the right carotid artery, and connected via a transducer to an eight-channeled physiological recorder. Tracheal cannula was performed, and the ventilation rate was maintained at 60 times/min. The chest was opened, a 6/0 suture was used to form a loop at a site 1˜2 mm from the root of the anterior descending coronary artery, and a plastic pipe was introduced through the loop, then the loop was tightened up. The change of electrocardiogram was observed. An increase or decrease of ST indicated the success of ligation. The color of the myocardial tissue below the ligation suture became darker. 30 minutes later, the plastic pipe was pulled out to allow coronary artery blood flowing again and cause hyperemia of local tissue during reperfusion. For the groups subjected to ischemia for 30 min and reperfusion for 30 min, the myocardial infarction areas were recorded before the test, after ischemia for 1 min and 30 min, and after reperfusion for 30 min; for the groups subjected to ischemia for 30 min and reperfusion for 2 h, cardiac tissue samples were taken and fixed using 10% formalin, embedded with paraffin, serially sliced into sections with a thickness of 4 μm, and separately subjected to immunohistochemistry tests; the rats of the sham operation group were subjected only to the introduction of suture but their coronary arteries were not ligated.
(§2) Standard immunohistochemistry ABC and SP methods were employed for staining. Bax: anti-rabbit polyclonal antibody (Santa CruzBio. Inc.) at a dilution of 1:200; […]: anti-rabbit polyclonal antibody (TBD Tianjin Biotechnological Center). At a dilution of […]; caspase-3: anti-rabbit polyclonal antibody (Normarkers Fromont, Calif.), at a dilution of 1:200; MMP-2: anti-murine monoclonal antibody (NormarkersFromont, Calif.) at a dilution of 1:200; PPARγ: anti-caprine polyclonal antibody (Santa Cruz Bio. Inc.), at a dilution of 1:500. The specific procedures were performed in accordance with the instructions of the ABC and SP kits, DAB was used for color development, and neutral resin was used for mounting. PBS was used instead of the first antibody as a negative control. Cells with positive expression of the test polypeptides were of brown-yellow color, with MMP-2 protein being present in acytoplasm, Bcl-2 expressed in nuclear membrane and cytoplasm, Bax mainly in cytoplasm and partially in nucleus, and caspase-3 mainly in nucleus and partially in cytoplasm. CMIAS image analysis system was used for random selection of fields of slices and automatic selection of sites for analysis, and statistic analysis was performed by using mean optical density values or integral optical density values of the obtained myocardial tissue slices.

For the next assay, the system named is PPARγ. The assay can be described thus: Immunohistochemistry protein expression in I/R myocardial tissue: PPARγ. The conditions noted are these: 1 mL/kg, 5 days; ischemia 30 min, reperfusion 2 h. The procedure: as §1
Standard immunohistochemistry ABC and SP methods were employed for staining. Bax: anti-rabbit polyclonal antibody (Santa CruzBio. Inc.) at a dilution of 1:200; […]: anti-rabbit polyclonal antibody (TBD Tianjin Biotechnological Center). At a dilution of […]; caspase-3: anti-rabbit polyclonal antibody (Normarkers Fromont, Calif.), at a dilution of 1:200; MMP-2: anti-murine monoclonal antibody (NormarkersFromont, Calif.) at a dilution of 1:200; PPARγ: anti-caprine polyclonal antibody (Santa Cruz Bio. Inc.), at a dilution of 1:500. The specific procedures were performed in accordance with the instructions of the ABC and SP kits, DAB was used for color development, and neutral resin was used for mounting. PBS was used instead of the first antibody as a negative control. […]

Another assay concerns Bax. Kind of assay: Immunohistochemistry protein expression in I/R myocardial tissue: Bax. Conditions: 1 mL/kg, 5 days; ischemia 30 min, reperfusion 2 h. The method, then: as §1, §2
The subject of a further assay is MMP-2. Kind of assay: Immunohistochemistry protein expression in I/R myocardial tissue: MMP-2. Conditions: 1 mL/kg, 5 days; ischemia 30 min, reperfusion 2 h. The method, then: as §1, §2
Assay [1] deals with rats with middle cerebral artery occlusion. The assay can be described thus: Cerebral microcirculatory blood flow in rats with middle cerebral artery occlusion. The conditions noted are these: 1 mL/kg ip. The method, then:
60 SD rats with a body weight of 220±20 g were randomly divided into normal control group, model control group, salvianic acid injection group (ip. 1 mL/kg), and group of bornyl β-(3,4-dihydroxylphenyl)-α-hydroxylpropionate ester at a small, middle and large dose respectively (ip. 5, 15, and 35 mg/kg). The rats of normal group and model group were administered with equal-volume of physiologic saline by ip. The rats were anesthetized by intraperitoneal injection of 1% pentobarbital sodium at an amount of 40 mg/kg, then placed at supine position, head fixed, and cut skin along cervical middle line. Trachea cannula, was inserted into the rats and they were allowed to spontaneous respire. Right common jugular vein and common carotid artery were isolated and a suture was introduced for later use. Animals were fixed on a rat stereotaxic apparatus, a cranial window with a size of 6×8 mm was opened at the right temple with a dental drill, after hemostasis, cerebral dura mater was cut open with scissors to expose cerebral pia mater. The window was covered and sealed with glass and dental cement, and the laser probe of a laser-doppler microcirculatory blood flow meter was fixed on the cranial window. Then the animals were fixed at lateral position, the right common carotid artery was lifted, ligated at the proximal part and carefully cut with scissors, a nylon suture having a diameter of about 0.3 mm was introduced into the artery. The distance between the artery cut and the paropia of the rats was marked before the suture was introduced. […] When the suture arrived at middle cerebral artery, an abrupt decrease of the microcirculatory blood flow would be observed. After the observation of a decrease in the microcirculatory blood flow, the suture was further penetrated by about 1 mm, and the distal end of the cut and the suture in the artery were ligated securely. Spare suture was cut-off. After the end of the test, it was checked whether the nylon suture blocked the initiation site of the middle cerebral artery, and the data of any animal whose artery was not blocked were cancelled. The animals of the control group were not treated. After the cranial window was prepared, the probe of J I2200 type laser-doppler microcirculatory blood flow meter was fixed at the cranial window, and the probe was maintained without displacement and rotation during the whole test. The microcirculatory blood flows before ligation and 5, 15, 30, 45 and 60 min after ligation were recorded, and the data of the animals in the drug-treatment groups were recorded at the same time points. The mean microcirculatory blood flow observed within 1 min at each time point was designated as the microcirculatory blood flow of the respective time point.

Another assay concerns Bcl-2. Kind of assay: Immunohistochemistry protein expression in I/R myocardial tissue: Bcl-2. Conditions: 1 mL/kg, 5 days; ischemia 30 min, reperfusion 2 h. The procedure: as §1, §2
Assay [2] concerns rats with cardiac ischemia reperfusion (I/R) injury. Kind of assay: Myocardial infarction areas caused by cardiac muscle I/R. The conditions noted are these: 1 mL/kg, 5 days; ischemia 30 min, reperfusion 30 min. The procedure: as §1
After the rats were subjected to ischemia and reperfusion for 30 minutes, their anterior descending coronaries were ligated again, then they were sacrificed, their hearts were removed promptly, and 0.5 mL of 1% evans blue was injected into heart chambers via aorta to distinguish the ischemic regions and the non-ischemic regions. After the heart atrium and right ventricle were cut-off, the heart was refrigerated at −20° C. for 30 min, then placed in a tailor-made slice groove, and cut along the long axis to form 2 mm slices. The slices were immersed in 1% TTC phosphoric acid buffer solution (pH7.4), and incubated at 37° C. for 30 min to distinguish risky regions and necrotic regions. Then the slices were fixed with 10% formaldehyde for 24 h to enhance staining color for contrast photography. After the above treatment, the myocardial tissue was divided into: normal myocardia in blue, ischemic myocardia in light red, and necrotic myocardion in gray. A computer image analysis software was used to calculate the percentage of the area of the infarct myocardial region (nec) based on the area of the risky myocardial region (aar, i.e., ischemic myocardia, including ischemic infarct region and ischemic non-infarct region) (nec/aar), and the percentage of the area of the infarct myocardial region based on the whole area of the myocardia (nec/lv) to indicate the degree of infarct, as well as the percentage of the area of the risky myocardia based on the area of the left ventricle (aar/lv).

Take `O=C(O)C(O)Cc1ccc(O)c(O)c1` (stereo not drawn) [Salvianic acid, β-(3,4-dihydroxyphenyl)-α-hydroxyl-propionic acid, reference compound]: the “Caspase-3 protein expression, OD value” with caspase-3 came out at 0.21 ± 0.12. In addition, in the assay on PPARγ, the “PPARγ protein expression, OD value” amounted to 0.34 ± 0.08. Further, in the assay on Bax, the “Bax protein expression, OD value” came out at 0.08 ± 0.02. Also, the “MMP-2 protein expression, OD value” with MMP-2 is given as 0.12 ± 0.05. Moreover, the Microcirculatory blood flow in assay [1] (5 min after ligation) worked out at 10.8 ± 3.6 mL; in assay [1] (15 min after ligation), 20.1 ± 6.9 mL; in assay [1] (30 min after ligation), 31.2 ± 9.5 mL; in assay [1] (45 min after ligation), 33.0 ± 6.8 mL; in assay [1] (60 min after ligation), 29.4 ± 6.9 mL. The “Bcl-2 protein expression, OD value” with Bcl-2 is listed as 0.18 ± 0.04. In assay [2], this compound had an aar/lv of 50.21 ± 7.10 %. The compound further displayed a nec/aar in assay [2] of 49.87 ± 7.83 %. The compound also yielded a nec/lv in assay [2] of 41.41 ± 5.49 %.

(Values after patent US8017786B2, “Substituted β-phenyl-α-hydroxy-propanoic acid, synthesis method and use thereof” (Northwest University, priority 2006, dated 2011).)
